Results on ten compounds are retold here after ChEMBL document CHEMBL1201862, “PubChem BioAssay data set” (2004).

Test systems include KM12; SK-OV-3; HCC 2998; MCF7; SW-620; OVCAR-8; PC-3; MDA-MB-435; Hs-578T; ACHN; HOP-92; SK-MEL-5; U-251; HT-29; K562; OVCAR-5; UO-31; SK-MEL-2; M14; MDA-MB-231.
Common to all, as to assay: DTP human tumour cell line panel, 48 h

One may read the GI50 as the concentration giving 50% growth inhibition.

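Cells were grown in 96-well plates and exposed to each compound for 48 hours at five concentrations; endpoints were interpolated linearly between bracketing concentrations, or set to the highest concentration if not reached. The concentration for 50% growth inhibition is given as GI50.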 Calls of active or inactive are those of the source. Cut-off read from the data, not from the text of the source: active = GI50 up to about 1.1 µM and inactive = higher. Starred links: 1 amine or outer side, 2 acyl side, 3 side chain; linkers in the order of their positions; H or OH if unused. Positions of bridges follow the written chain, without caps; N, C: chain ends. Non-standard residues stand in square brackets, D forms with d. Residues, ends and D or L forms follow the SMILES beside them. ξ: configuration not given here. *: point of attachment. γ4hArg(2R,3R-(OH)2) = N=C(N)NCCC[C@H](N[*:1])[C@@H](O)[C@@H](O)C(=O)[*:2]; Gln(3S,4R-Me2) = C[C@H]([C@H](N)C(=O)O)[C@@H](C)C(N)=O; X50 = CC(C)C[C@H](C)[C@@H](O)[C@@H](C)C(=O)*; X51 = COC(c1ccc(O)cc1)C(N[*:1])C(=O)[*:2]; NMeQ = CN[C@@H](CCC(N)=O)C(=O)O; Thr(3ξ) = CC(O)[C@H](N)C(=O)O; NMeA = CN[C@@H](C)C(=O)O

Turning to `COC(=O)c1ccc(NCc2c(O)ccc(O)c2Br)cc1Cl`, the GI50 in the experiment on KM12 is 15.3 µM (inactive); in the experiment with SK-OV-3 it was > 100 µM (inactive); in the experiment on HCC 2998 it was 19.1 µM (inactive); in the experiment on MCF7, 16 µM (inactive); in the experiment with SW-620, 12.2 µM (inactive); with OVCAR-8, 14.7 µM (inactive). The GI50 with PC-3 was 13.8 µM (inactive); with MDA-MB-435, 13.6 µM (inactive); with Hs-578T, 25.1 µM (inactive); with ACHN, 15.6 µM (inactive); in the experiment on HOP-92, 14.9 µM (inactive); in the experiment on SK-MEL-5, 18.5 µM (inactive). Besides, the GI50 was 16.7 µM (inactive) in the experiment with U-251; 20.7 µM (inactive) in the experiment on HT-29; 1.78 µM (inactive) with K562; 14.6 µM (inactive) with OVCAR-5; 15.8 µM (inactive) in the experiment on UO-31; 19.1 µM (inactive) with SK-MEL-2. The GI50 in the experiment with M14 is 17.5 µM (inactive); in the experiment on MDA-MB-231 it was 15.2 µM (inactive).

On to `CN(C)/N=C/c1cn(C)c(=O)n(C)c1=O`, for which the GI50 with KM12, in the experiment on SK-OV-3, in the experiment with HCC 2998, with MCF7, in the experiment with SW-620 and in the experiment with OVCAR-8 was > 100 µM (inactive) in each case. Besides, the GI50 in the experiment with PC-3, in the experiment on MDA-MB-435, in the experiment with Hs-578T, in the experiment on ACHN, with HOP-92 and in the experiment on SK-MEL-5 was > 100 µM (inactive) throughout. Moreover, the GI50 in the experiment with U-251, with HT-29, in the experiment with K562, in the experiment on OVCAR-5, in the experiment on UO-31 and in the experiment with SK-MEL-2 was > 100 µM (inactive) each time. Besides, the GI50 in the experiment on M14 and in the experiment on MDA-MB-231 was > 100 µM (inactive) throughout.

In the case of `O=c1[nH]c2nc3ccccc3c(=O)n2/c1=C/c1ccco1`, the GI50 with KM12 is > 100 µM (inactive); with SK-OV-3, > 100 µM (inactive); with HCC 2998 it was > 100 µM (inactive); with MCF7 it was 4.2 µM (inactive); with SW-620, > 100 µM (inactive); in the experiment with OVCAR-8, > 100 µM (inactive). Also, the GI50 with PC-3, in the experiment with MDA-MB-435, in the experiment on Hs-578T, with ACHN, with HOP-92 and with SK-MEL-5 was > 100 µM (inactive) each time. Moreover, the GI50 with U-251, in the experiment with HT-29, in the experiment with K562, with OVCAR-5, in the experiment on UO-31 and in the experiment with SK-MEL-2 was > 100 µM (inactive) in each case. Moreover, the GI50 in the experiment on M14 and in the experiment with MDA-MB-231 was > 100 µM (inactive) throughout.

With `COc1ccc(/C(CC2OC(=O)c3ccccc32)=N\NC(N)=O)cc1` (stereo not given), the GI50 in the experiment with KM12, in the experiment on SK-OV-3, in the experiment with HCC 2998, with MCF7, in the experiment with SW-620 and with OVCAR-8 was > 100 µM (inactive) each time. The GI50 with PC-3, in the experiment on MDA-MB-435, in the experiment on Hs-578T, in the experiment on ACHN, in the experiment on HOP-92 and in the experiment with SK-MEL-5 was > 100 µM (inactive) each time. Besides, the GI50 in the experiment on U-251, with HT-29, in the experiment on K562, in the experiment with OVCAR-5, in the experiment on UO-31 and in the experiment with SK-MEL-2 was > 100 µM (inactive) throughout. The GI50 in the experiment on M14 and in the experiment with MDA-MB-231 was > 100 µM (inactive) throughout.

Take `CSC(=N/N=C(\C)c1ccc(S(=O)(=O)N(C)c2ccccc2)cc1)SC`: the GI50 in the experiment with KM12 was > 64.4 µM (inactive); in the experiment with SK-OV-3, > 66.5 µM (inactive); in the experiment with HCC 2998, > 100 µM (inactive); in the experiment on MCF7, 31.1 µM (inactive); in the experiment with SW-620, > 66.4 µM (inactive); in the experiment with OVCAR-8 it was > 100 µM (inactive). The GI50 in the experiment on PC-3 is > 62.7 µM (inactive); in the experiment on MDA-MB-435, > 62.8 µM (inactive); with Hs-578T it was > 59.4 µM (inactive); with ACHN it was > 70 µM (inactive); in the experiment on HOP-92, > 43.8 µM (inactive); with SK-MEL-5, > 100 µM (inactive). For the same compound, the GI50 was > 51.9 µM (inactive) with U-251; > 84.9 µM (inactive) in the experiment with HT-29; > 53.1 µM (inactive) with K562; > 66.5 µM (inactive) in the experiment with OVCAR-5; > 61.5 µM (inactive) in the experiment with UO-31; > 62.2 µM (inactive) in the experiment with SK-MEL-2. Besides, the GI50 in the experiment with M14 is > 63.1 µM (inactive); with MDA-MB-231, > 61.8 µM (inactive).

For `O=[N+]([O-])c1cc(Cl)ccc1S(=O)(=O)c1ccccc1`, the GI50 with KM12, in the experiment on SK-OV-3, in the experiment on HCC 2998, in the experiment with MCF7, with SW-620 and in the experiment on OVCAR-8 was > 100 µM (inactive) throughout. The GI50 in the experiment on PC-3 was > 100 µM (inactive); in the experiment on MDA-MB-435, > 100 µM (inactive); in the experiment with Hs-578T it was 26.7 µM (inactive); with ACHN, > 100 µM (inactive); in the experiment with HOP-92, 82 µM (inactive); with SK-MEL-5, 49.2 µM (inactive). For the same compound, the GI50 was > 100 µM (inactive) in the experiment on U-251; 74.6 µM (inactive) with HT-29; 65.6 µM (inactive) in the experiment on K562; > 100 µM (inactive) in the experiment with OVCAR-5; > 100 µM (inactive) in the experiment on UO-31; 17.3 µM (inactive) in the experiment with SK-MEL-2. In addition, the GI50 in the experiment with M14 is > 100 µM (inactive); in the experiment on MDA-MB-231, 51.3 µM (inactive).

Regarding `Nc1cccc(OCC2CCCN3CCCCC23)c1` (stereo not given), the GI50 with KM12 was 17.6 µM (inactive); with SK-OV-3, 72.9 µM (inactive); in the experiment on HCC 2998, 13.7 µM (inactive); in the experiment on MCF7 it was 19.5 µM (inactive); with SW-620 it was 21.3 µM (inactive); in the experiment on OVCAR-8, 18.7 µM (inactive). In addition, the GI50 in the experiment with PC-3 is 16.9 µM (inactive); in the experiment with MDA-MB-435 it was 22.5 µM (inactive); in the experiment on Hs-578T, 16.7 µM (inactive); with ACHN, 18 µM (inactive); with HOP-92, 28.5 µM (inactive); in the experiment with SK-MEL-5, 18.9 µM (inactive). For the same compound, the GI50 was 24.4 µM (inactive) in the experiment on U-251; 12.6 µM (inactive) in the experiment with HT-29; 22 µM (inactive) with K562; 17.7 µM (inactive) with OVCAR-5; 27.2 µM (inactive) with UO-31; 20.1 µM (inactive) in the experiment on SK-MEL-2. The GI50 is 20 µM (inactive) in the experiment with M14 and 17.2 µM (inactive) with MDA-MB-231.

In the case of `CC(C)(C)OC(=O)N(O)[C@@H]1CC[C@H](n2cnc3c(N)ncnc32)C1`, the GI50 in the experiment with KM12, with SK-OV-3, with HCC 2998, with MCF7, with SW-620 and with OVCAR-8 was > 100 µM (inactive) in each case. For the same compound, the GI50 in the experiment with PC-3, in the experiment with MDA-MB-435, in the experiment on Hs-578T, in the experiment with ACHN, in the experiment with HOP-92 and in the experiment on SK-MEL-5 was > 100 µM (inactive) throughout. Moreover, the GI50 with U-251 is > 100 µM (inactive); in the experiment on HT-29 it was > 100 µM (inactive); with K562 it was > 100 µM (inactive); with OVCAR-5 it was > 100 µM (inactive); in the experiment on UO-31, 96.8 µM (inactive); with SK-MEL-2, > 100 µM (inactive). Also, the GI50 with M14 and in the experiment with MDA-MB-231 was > 100 µM (inactive) each time.

As to `CC1=[N+](C)CCN1C`, the GI50 with KM12, with SK-OV-3, with HCC 2998, with MCF7, in the experiment with SW-620 and with OVCAR-8 was > 100 µM (inactive) in each case. Further, the GI50 in the experiment on PC-3, in the experiment with MDA-MB-435, with Hs-578T, with ACHN, with HOP-92 and in the experiment on SK-MEL-5 was > 100 µM (inactive) in each case. For the same compound, the GI50 with U-251, in the experiment with HT-29, with K562, with OVCAR-5, in the experiment on UO-31 and in the experiment on SK-MEL-2 was > 100 µM (inactive) throughout. Further, the GI50 in the experiment with M14 and in the experiment on MDA-MB-231 was > 100 µM (inactive) throughout.

In the case of `COC(c1ccc(O)cc1)C1NC(=O)[C@H](CCC(N)=O)N(C)C(=O)[C@H](CC(C)C)NC(=O)[C@@H](CCCN=C(N)N)NC(=O)[C@H](C(C)O)NC(=O)[C@@H](NC(=O)[C@@H](NC(=O)[C@H](O)[C@H](O)[C@H](CCCN=C(N)N)NC(=O)[C@H](C)NC(=O)[C@H](C)[C@H](O)[C@@H](C)CC(C)C)[C@@H](C)[C@@H](C)C(N)=O)[C@@H](C)OC(=O)[C@H](C)N(C)C1=O` (stereo partly drawn) (X50-A[γ4hArg(2R,3R-(OH)2)][Gln(3S,4R-Me2)]T[Thr(3ξ)][dR]L[NMeQ][X51][NMeA]; ester 4-C), the 50% growth inhibitory concentration (GI50) in the experiment with KM12 is 0.121 µM (active); in the experiment on SK-OV-3 it was 0.189 µM (active); in the experiment with HCC 2998, 0.0877 µM (active); in the experiment with MCF7 it was 0.14 µM (active); in the experiment on SW-620, 0.137 µM (active); in the experiment on OVCAR-8, 0.0889 µM (active). Further, the concentration for 50% growth inhibition (GI50) in the experiment on PC-3 was 0.187 µM (active); in the experiment with MDA-MB-435 it was 0.145 µM (active); with Hs-578T it was 0.0405 µM (active); in the experiment with ACHN, 0.115 µM (active); in the experiment on HOP-92, 0.138 µM (active); with SK-MEL-5 it was 0.0682 µM (active). Also, the GI50 in the experiment with U-251 is 0.121 µM (active); in the experiment with HT-29 it was 0.0904 µM (active); in the experiment with K562 it was 0.0847 µM (active); with OVCAR-5 it was 0.167 µM (active); in the experiment with UO-31, 0.249 µM (active); in the experiment with SK-MEL-2 it was 0.247 µM (active). Also, the concentration for 50% growth inhibition (GI50) in the experiment with M14 was 0.115 µM (active); in the experiment on MDA-MB-231, 0.106 µM (active).
